# Activity calls are given as the source filed them.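 The calls were made as follows: active = mean IC50 below 10 µM; inactive = the rest.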
# Target: Apelin receptor (Homo sapiens) (UniProt P35414)
# Assay: APJ antagonists, beta-arrestin recruitment, SAR follow-up, cell-based, luminescence, set 2 (AID 488803)
# Details: CHO-K1 APJ PathHunter beta-arrestin, antagonist
# Chain of Apelin receptor (Homo sapiens) (P35414 whole entry, looked up): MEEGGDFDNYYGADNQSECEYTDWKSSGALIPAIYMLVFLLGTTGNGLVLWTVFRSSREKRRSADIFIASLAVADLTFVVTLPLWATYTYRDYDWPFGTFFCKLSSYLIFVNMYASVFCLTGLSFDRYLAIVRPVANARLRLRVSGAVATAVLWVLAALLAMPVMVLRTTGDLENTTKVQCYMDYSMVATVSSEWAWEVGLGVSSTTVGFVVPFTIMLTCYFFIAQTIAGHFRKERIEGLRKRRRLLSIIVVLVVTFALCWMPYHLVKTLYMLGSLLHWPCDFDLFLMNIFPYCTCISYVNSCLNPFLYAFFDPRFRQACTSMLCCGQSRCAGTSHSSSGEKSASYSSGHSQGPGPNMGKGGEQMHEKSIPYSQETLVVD
row,SMILES,IC50
1,Cc1cc(C)nc(SCc2cc(=O)c(OC(=O)c3cc(Cl)ccc3[N+](=O)[O-])co2)n1,> 79 µM (inactive)
2,Cc1ccnc(SCc2cc(=O)c(OC(=O)c3ccccc3C)co2)n1,> 79 µM (inactive)
3,CC(C)Oc1ccc(C(=O)Oc2coc(CSc3ncccn3)cc2=O)cc1,> 79 µM (inactive)
4,CC(=O)Oc1cc2c(cc1Cl)C(c1ccccc1Cl)CC1(CC(C)(C)NC(=S)N1)O2 (configuration not stated),> 79 µM (inactive)
5,C=CCOc1ccc(COc2ccccc2)cc1,> 79 µM (inactive)
6,O=C(Oc1coc(CSc2ccccc2)cc1=O)c1ccc(Cl)c([N+](=O)[O-])c1,9.61 µM
7,Cc1cc(C)nc(SCc2cc(=O)c(O)co2)n1,> 79 µM (inactive)
8,O=C(Oc1coc(CSc2ncccn2)cc1=O)c1cc(Cl)ccc1[N+](=O)[O-],> 79 µM (inactive)
9,COc1ccccc1NCC(=O)c1ccc(Cl)cc1,1.7 µM
10,Cc1c(O)ccc2c1OC1(CC2c2ccccc2Cl)CC(C)(C)NC(=S)N1 (configuration not stated),> 79 µM (inactive)
11,Cc1ccnc(SCc2cc(=O)c(OC(=O)c3ccco3)co2)n1,> 79 µM (inactive)
12,Cc1ccccc1C1CC2(CC(C)(C)NC(=S)N2)Oc2cc(O)c(Cl)cc21 (configuration not stated),inactive
13,C=CCOc1cccc(CSc2ncccn2)c1,> 79 µM (inactive)
14,Cc1cc(C)nc(SCc2cccc(O)c2)n1,> 79 µM (inactive)
15,O=c1cc(CCl)occ1O,> 79 µM (inactive)
16,CCOc1ccc(C(=O)Oc2coc(CSc3ncccn3)cc2=O)cc1,> 79 µM (inactive)
17,COc1ccc(C(=O)Oc2coc(CSc3ncccn3)cc2=O)cc1,> 79 µM (inactive)
18,Cc1cc(C)nc(SCc2cc(=O)c(OC(=O)c3cc([N+](=O)[O-])ccc3Cl)co2)n1,inactive
19,Cc1ccnc(SCc2cc(=O)c(OC(=O)c3cc([N+](=O)[O-])ccc3Cl)co2)n1,inactive
20,Cc1ccc(N=C2C(=O)Nc3ccccc32)cc1,inactive
21,Cc1ccc(C(=O)Oc2coc(CSc3nccc(C)n3)cc2=O)cc1,> 79 µM (inactive)
22,Cc1ccc(C(=O)Oc2coc(CSc3ncccn3)cc2=O)cc1C,> 79 µM (inactive)
23,O=C(Oc1coc(CSc2ncccn2)cc1=O)c1ccccc1,> 79 µM (inactive)
24,COc1cc(CSc2nc(C)cc(C)n2)ccc1O,> 79 µM (inactive)
25,Cc1cc(C)nc(SCc2cc(=O)c(OC(=O)c3ccc(S(=O)(=O)N(C)C)cc3)co2)n1,> 79 µM (inactive)
26,Cc1ccnc(S(=O)(=O)Cc2cc(=O)c(OC(=O)c3ccc(Cl)c([N+](=O)[O-])c3)co2)n1,3.21 µM

row,SMILES,IC50
1,C=CCOc1cccc(CSc2nc(C)cc(C)n2)c1,> 79 µM (inactive)
2,O=c1cc(CSc2ccccc2)occ1O,> 79 µM (inactive)
3,COc1ccccc1NC(=O)CN1C(=O)C(=O)c2ccccc21,inactive
4,COc1ccc(C(=O)Oc2coc(CSc3nccc(C)n3)cc2=O)cc1,> 79 µM (inactive)
5,Cc1ccnc(SCc2cc(=O)c(OC(=O)c3ccc(C(F)(F)F)cc3)co2)n1,inactive
6,Cc1ccnc(SCc2cc(=O)c(OC(=O)c3cccc([N+](=O)[O-])c3)co2)n1,inactive
7,COc1ccc(C2CC3(CC(C)(C)NC(=S)N3)Oc3cc(OC(C)=O)cc(C)c32)cc1 (configuration not stated),inactive
8,Cc1cc(C)nc(SCc2cc(=O)c(OC(=O)c3cccc([N+](=O)[O-])c3C)co2)n1,> 79 µM (inactive)
9,Cc1c(C(=O)Oc2coc(CSc3ncccn3)cc2=O)cccc1[N+](=O)[O-],inactive
10,Cc1ccc(NCC(O)c2ccccc2)cc1 (configuration not stated),> 79 µM (inactive)
11,Cc1ccnc(SCc2cc(=O)c(OC(=O)c3ccc(C#N)cc3)co2)n1,8.51 µM
12,Cc1cc(C)nc(SCc2ccc(OC(=O)c3ccccc3)c(Cl)c2)n1,> 79 µM (inactive)
13,COc1ccccc1NCC(O)c1ccc(Cl)cc1 (configuration not stated),> 79 µM (inactive)
14,Cc1ccnc(SCc2cc(=O)c(OC(=O)c3ccc(OC(F)(F)F)cc3)co2)n1,> 79 µM (inactive)
15,O=C(Oc1coc(CSc2ncccn2)cc1=O)c1ccc(S(=O)(=O)N2CCOCC2)cc1,> 79 µM (inactive)
16,C=CCSC1=NC2(CC(c3ccccc3)c3c(C)cc(O)cc3O2)CC(C)(C)N1 (configuration not stated),> 79 µM (inactive)
17,Cc1ccc(C(=O)Oc2coc(CSc3ncccn3)cc2=O)cc1[N+](=O)[O-],7.25 µM
18,Cc1cccc(C2CC3(CC(C)(C)NC(=S)N3)Oc3cc(O)cc(C)c32)c1 (configuration not stated),inactive
19,Cc1ccnc(SCc2cc(=O)c(OCc3ccccc3)co2)n1,> 79 µM (inactive)
20,O=C(Oc1coc(CSc2ncccn2)cc1=O)c1ccc(S(=O)(=O)N2CCCC2)cc1,> 79 µM (inactive)
21,Cc1cccc(C2CC3(CC(C)(C)NC(=O)N3)Oc3cc(O)c(Cl)cc32)c1 (configuration not stated),> 79 µM (inactive)
22,Cc1c(O)ccc2c1OC1(CC2c2ccccc2Cl)CC(C)(C)NC(=O)N1 (configuration not stated),> 79 µM (inactive)
23,Cc1ccnc(SCc2cc(=O)c(OC(=O)c3ccc([N+](=O)[O-])cc3)co2)n1,4.32 µM
24,Cc1cc(C)nc(SCc2cc(=O)c(OC(=O)c3ccc(Cl)c([N+](=O)[O-])c3)co2)n1,5.45 µM
25,Cc1ccc(NCC(=O)c2ccccc2)cc1,2.53 µM
26,CSC1=NC2(CC(c3ccccc3)c3cc(Cl)c(O)cc3O2)CC(C)(C)N1 (configuration not stated),> 79 µM (inactive)

row,SMILES,IC50
1,CCN(CC)S(=O)(=O)c1ccc(C(=O)Oc2coc(CSc3ncccn3)cc2=O)cc1,> 79 µM (inactive)
2,Cc1ccnc(SCc2cc(=O)c(OC(=O)c3ccc(S(=O)(=O)N4CCCC4)cc3)co2)n1,> 79 µM (inactive)
3,CC1(C)CC2(CC(c3ccccc3Cl)c3ccc(O)cc3O2)NC(=O)N1 (configuration not stated),> 79 µM (inactive)
4,O=C(Oc1coc(CSc2ncccn2)cc1=O)c1ccc(F)cc1,> 79 µM (inactive)
5,Cc1ccnc(SCc2cc(=O)c(O)co2)n1,> 79 µM (inactive)
6,Cc1ccccc1NCC(O)c1ccc(Cl)cc1 (configuration not stated),> 79 µM (inactive)
7,C=CCSC1=NC2(CC(c3ccc(C)cc3)c3c(C)cc(OC(C)=O)cc3O2)CC(C)(C)N1 (configuration not stated),inactive
8,Cc1ccc(C)c(NCC(O)c2ccc(Cl)cc2)c1 (configuration not stated),> 79 µM (inactive)
9,N#Cc1ccc(C(=O)Oc2coc(CSc3ncccn3)cc2=O)cc1,6.59 µM
10,C=CCOc1ccc(CSc2nc(C)cc(C)n2)cc1Cl,> 79 µM (inactive)
11,CSc1cccc(N=C2C(=O)Nc3ccccc32)c1,9.84 µM
12,O=C(Oc1coc(CSc2ncccn2)cc1=O)c1cccc([N+](=O)[O-])c1,inactive
13,O=C(Oc1coc(CSc2ncccn2)cc1=O)c1ccc(C(F)(F)F)cc1,inactive
14,Cc1ccnc(SCc2cc(=O)c(OC(=O)c3cccc(Cl)c3)co2)n1,> 79 µM (inactive)
15,Cc1cccc(C2CC3(CC(C)(C)NC(=S)N3)Oc3cc(O)c(Cl)cc32)c1 (configuration not stated),inactive
16,COc1ccc(NC2C(=O)Nc3ccccc32)cc1 (configuration not stated),> 79 µM (inactive)
17,CC1(C)CC2(CC(c3ccccc3Cl)c3ccc(O)cc3O2)NC(=S)N1 (configuration not stated),6.88 µM
18,O=C(Oc1coc(CSc2ncccn2)cc1=O)c1ccc(Br)cc1,inactive
19,Cc1cccc(C(=O)Oc2coc(CSc3nccc(C)n3)cc2=O)c1,> 79 µM (inactive)
20,CC1(C)CC2(CC(c3ccccc3Cl)c3cc(Cl)c(OC(=O)C4CC4)cc3O2)NC(=S)N1 (configuration not stated),inactive
21,CC1(C)CC2(CC(c3ccccc3Cl)c3ccc(OC(=O)c4ccccc4)cc3O2)NC(=S)N1 (configuration not stated),inactive
22,COc1ccc(C2CC3(CC(C)(C)NC(=S)N3)Oc3cc(O)cc(C)c32)cc1 (configuration not stated),inactive
23,O=c1cc(CSc2ncccn2)occ1O,> 79 µM (inactive)
24,Cc1ccnc(SCc2cc(=O)c(OC(=O)c3cccs3)co2)n1,> 79 µM (inactive)
25,Cc1ccccc1NCC(=O)c1ccc(Cl)cc1,1.42 µM
26,Cc1cc(C)nc(SCc2ccc(O)c(Cl)c2)n1,> 79 µM (inactive)

row,SMILES,IC50
1,Oc1cccc(CSc2ncccn2)c1,> 79 µM (inactive)
2,O=C(O)CN1C(=O)C(=O)c2ccccc21,> 79 µM (inactive)
3,CN(C)S(=O)(=O)c1ccc(C(=O)Oc2coc(CSc3ncccn3)cc2=O)cc1,> 79 µM (inactive)
4,CCCCOc1ccc(C(=O)Oc2coc(CSc3ncccn3)cc2=O)cc1,> 79 µM (inactive)
5,O=C(Oc1coc(CSc2ncccn2)cc1=O)c1cc([N+](=O)[O-])ccc1Cl,inactive
6,Cc1ccnc(SCc2cccc(O)c2)n1,> 79 µM (inactive)
7,C=CCOc1cccc(CSc2nccc(C)n2)c1,> 79 µM (inactive)
8,COc1cc(C(=O)Oc2coc(CSc3ncccn3)cc2=O)c([N+](=O)[O-])cc1OC,> 79 µM (inactive)
9,O=C(Oc1coc(CSc2ncccn2)cc1=O)c1ccc(-c2ccccc2)cc1,> 79 µM (inactive)
10,CC(C)OC(=O)CN1C(=O)C(=O)c2ccccc21,> 79 µM (inactive)
11,Cc1ccnc(SCc2cc(=O)c(OC(=O)c3ccc(C)c([N+](=O)[O-])c3)co2)n1,4.7 µM
12,O=C(COC(=O)c1cccnc1)c1ccc(Cl)cc1,> 79 µM (inactive)
13,Cc1ccc(C(=O)Oc2coc(CSc3ncccn3)cc2=O)cc1,> 79 µM (inactive)
14,Cc1ccnc(SCc2cc(=O)c(OC(=O)c3ccccc3Cl)co2)n1,inactive
15,CC1(C)CC2(CC(c3ccc(Cl)cc3)c3ccc(O)cc3O2)NC(=S)N1 (configuration not stated),inactive
16,Cc1ccnc(SCc2cc(=O)c(OC(=O)c3ccc(Cl)cc3)co2)n1,> 79 µM (inactive)
17,O=C(Oc1coc(CSc2ncccn2)cc1=O)c1ccc(Cl)cc1,inactive
18,O=C(Oc1coc(CSc2ncccn2)cc1=O)c1ccc(Cl)c([N+](=O)[O-])c1,6.2 µM
19,CC(C)(C)c1ccc(C(=O)Oc2coc(CSc3ncccn3)cc2=O)cc1,> 79 µM (inactive)
20,Cc1ccnc(SCc2cc(=O)c(OC(=O)c3ccc(F)cc3)co2)n1,> 79 µM (inactive)
21,C=CCOc1ccc(CSc2nccc(C)n2)cc1,> 79 µM (inactive)
22,Cc1cc(C)nc(SCc2cc(=O)c(OC(=O)c3ccc(C)c([N+](=O)[O-])c3)co2)n1,inactive
23,C=CCOc1ccc(CSc2nc(C)cc(C)n2)cc1OC,> 79 µM (inactive)
24,O=C(Oc1coc(CSc2ncccn2)cc1=O)c1ccc(S(=O)(=O)N2CCCCC2)cc1,> 79 µM (inactive)

# From PubChem BioAssay AID488803 (Sanford-Burnham Center for Chemical Genomics, 2010)
